PubChem BioAssay AID504646 (Southern Research Specialized Biocontainment Screening …, 2011)
Several values for one entry are separate records, joined by “and”; a condition that tells them apart may be missing. Equal values may be shown once. Activity calls are given as the source filed them. No rule for the calls is given here. Peptide text beside a SMILES is read from it. * marks the point of attachment. Cbz = O=C(OCc1ccccc1)*

What was measured:
[1] = M. tuberculosis growth inhibition in 7H9, dose response, 7H9 media, purified and synthesized samples, set 3 (AID 504646); settings: Mycobacterium tuberculosis growth in 7H9 media; at 25 µM (top of the series)
[2] = tested on: Mycobacterium tuberculosis growth in 7H9 media; assay: as above; settings: for IC90: 90% growth inhibition concentration

Compound | growth inhibition [1] | IC50 [2] | IC90 [2]
Cc1nc(SCC(=O)N(C)c2ccccc2)[nH]c(=O)c1C | -13.6% (inactive) | – | –
O=C(C1CCC(CNc2c(N3CCCCC3)c(=O)c2=O)CC1)N1CCCCC1 (stereo not drawn) | -2.59% (inactive) | – | –
Cc1cccc(N2CCN(C(=O)c3ccc(CNc4c(N5CCC(C)CC5)c(=O)c4=O)cc3)CC2)c1C | – | 24500 nM | > 25000 nM
CC(=NCc1ccc2c(c1)OCO2)C1=C(O)c2ccccc2C1=O | – | 950 nM | > 25000 nM
CCOC(=O)CNC(=O)[C@H](Cc1ccccc1)NC(=O)OCc1ccccc1 (Cbz-Phe-Gly-OEt) | – | 1060 nM | 2960 nM
CCc1ccc(/C=C2/C(=O)N(C)C(=S)N2CC(=O)OC)s1 | – | 1120 nM | 4630 nM
O=C(c1ccc(CNc2c(N3CCCC3)c(=O)c2=O)cc1)N1CC=C(c2ccccc2)CC1 | – | 2310 nM | > 25000 nM
CCOC(=O)N1CCC(Nc2c(N3CCN(c4cccc(C(F)(F)F)c4)CC3)c(=O)c2=O)CC1 | -1.75% (inactive) | – | –
Cc1ccc(NC(=O)CSc2nc(N)c(-c3ccccc3)c(=O)[nH]2)cc1Cl | -2.34% (inactive) | – | –
COC(=O)c1ccc(CNc2c(N3CCCC3)c(=O)c2=O)cc1 | -13.4% (inactive) | – | –
CCc1c(O)nc(SCC(=O)Nc2ccc(OC)cc2)n(C2CCCCC2)c1=O | -2.19% (inactive) | – | –
O=C(NCC(c1cccs1)N1CCOCC1)c1cc([N+](=O)[O-])cc([N+](=O)[O-])c1 (stereo not drawn) | – | 210 nM | 580 nM
CCOC1OC(=O)C(Cl)=C1Nc1ccccc1C (stereo not drawn) | – | 2310 nM | > 25000 nM
COC(=O)C(C)Sc1ncnc2c1nnn2-c1ccc(F)cc1 (stereo not drawn) | – | 1880 nM | 4640 nM
CCCc1cc(=O)[nH]c(SCC(=O)Nc2cc3c(cc2C(C)=O)OCO3)n1 | 3.07% (inactive) | – | –
CCOC(=O)CSc1ncnc2c1cnn2-c1ccc(Cl)cc1 | – | 4320 nM | > 25000 nM
CN(C(=O)CSc1nc2ccccc2c(=O)[nH]1)C1CCCCC1 | -6.94% (inactive) | – | –
Cc1cc(=O)[nH]c(SCC(=O)Nc2ncc(S(=O)(=O)c3ccc([N+](=O)[O-])cc3)s2)n1 | -1.38% (inactive) | – | –
Cc1nn2c(NCc3ccccn3)cc(C(C)C)nc2c1-c1ccccc1 | – | 1220 nM | 1730 nM
CCC(C)Nc1ccc(NC(C)CC)cc1 (stereo not drawn) | – | 610 nM | 980 nM
Cc1ccc2c(c1)c(C1=c3ccccc3=NC1=O)c(O)n2C | – | 840 nM | 3120 nM
COc1ccc(-c2noc(CSc3nc(N)c(-c4ccccc4)c(=O)[nH]3)n2)cc1OC | -5.09% (inactive) | – | –
CC(C)OC(=O)CSc1ncnc2c1cnn2-c1ccccc1 | – | 10500 nM | > 25000 nM
CC1CCCN(C(=O)C2CCC(CNc3c(N4CCCCC4)c(=O)c3=O)CC2)C1 (stereo not drawn) | – | 11500 nM | > 25000 nM

Compound | growth inhibition [1] | IC50 [2] | IC90 [2]
COC(=O)C1CC(=O)N(c2ccc(OCc3ccccc3Cl)cc2)C1 (stereo not drawn) | – | 470 nM | 2740 nM
Cc1nc(SCc2ccccc2Cl)[nH]c(=O)c1C | -6.95% (inactive) | – | –
CCOc1ccc(NC(=O)CSc2nc(N)c(-c3ccccc3)c(=O)[nH]2)cc1 | 0.19% (inactive) | – | –
COC(=O)c1cc(=O)n(-c2ccc(F)cc2)c(=Nc2ccc(F)cc2)s1 | – | 360 nM | 1180 nM
CCOC(=O)COn1c2c(c3c4no[n+]([O-])c4ccc31)CCCC2 | – | 1960 nM | 3170 nM
Cc1ccc(NC(=O)CSc2nc(N)cc(=O)[nH]2)cc1Cl | 2.55% (inactive) | – | –
CCOC(=O)CSc1ncnc2c1cnn2-c1ccc(C)cc1C | – | 4630 nM | 7470 nM
COC(=O)CCc1nc2c(C#N)c(-c3ccc(Cl)cc3)ccn2n1 | – | 2580 nM | 3660 nM
Nc1cc(=O)[nH]c(SCC(=O)Nc2ccccc2-c2ccccc2)n1 | -1.58% (inactive) | – | –
O=C(CSc1nc2ccccc2c(=O)[nH]1)NCc1ccc(Cl)cc1 | – | 380 nM and 1300 nM | 670 nM and 2020 nM
O=C(NCCc1ccc(Cl)cc1)c1ccc(CNc2c(N3CCOCC3)c(=O)c2=O)cc1 | – | 4710 nM | 6880 nM
CC(C)CCNC(=O)CSc1nc2ccccc2c(=O)[nH]1 | – | 1190 nM | 2350 nM
Cc1ccc2ccc3ccc(C)nc3c2n1 | – | 180 nM | 480 nM
O=C(CSc1ncccn1)NC1CCCCC1 | -5.77% (inactive) | – | –
c1ccc(/N=C2\N=C(Nc3ccccn3)c3ccccc32)nc1 | – | 160 nM | 250 nM
CCOC(=O)CSc1ncnc2c1nnn2-c1ccc(F)cc1 | – | 2460 nM | 4350 nM
CC(C)NC(=O)c1sc(=S)n2c1[nH]c(=O)c1ccc(C(=O)NCCc3ccc(Cl)cc3)cc12 | – | 110 nM | 300 nM
CCc1c(C)nc(SCC(=O)NC2CCCC2)[nH]c1=O | – | 1500 nM | 2850 nM
Cc1cc(C)cc(NC(=O)CSc2nc3c(c(=O)[nH]2)CN(Cc2ccc(F)cc2)CC3)c1 | -0.33% (inactive) | – | –
CCOC(=O)C(CC)Sc1ncnc2c1nnn2-c1ccc(F)cc1 (stereo not drawn) | 12.2% (inactive) | – | –
O=C(c1ccc(CNc2c(N3CCCC3)c(=O)c2=O)cc1)N1CCc2ccccc2C1 | – | 3620 nM | 5790 nM
COc1ccc(-n2nnc3c(SCC(=O)OCc4ccccc4)ncnc32)cc1 | – | 1630 nM | > 25000 nM
CCOC(=O)CSc1nc(C)c(C)c(=O)[nH]1 | -7.78% (inactive) | – | –
CC1CC(C)CN(C(=O)C2CCC(CNc3c(N4CCCCC4)c(=O)c3=O)CC2)C1 (stereo not drawn) | – | 7760 nM | > 25000 nM
